Laboratory results from patent US20080011191A1, “Novel Azo Compound or Salt, Ink Composition Comprising Such Azo Compound, and Colored Article” (priority 2004, published 2008).

Key:
Type in all cases: physicochemical
[1] = Evaluation of hue and vividness of a recorded image on glossy paper (colorimetry, GRETAG SPM50); settings: for Vividness C*: C*=((a*)^2+(b*)^2)^1/2, glossy paper PR-101; for Vividness C* (3-level evaluation): glossy paper PR-101; for Brilliance L* / Hue a* / Hue b*: inkjet print of Table 3 ink (3.0 parts compound) on glossy paper Professional Photopaper PR-101
Protocol: (§1) A liquid of a composition shown in the following Table 3 is prepared using a compound (Compound No. 1) obtained in (2) of the above Example 1, followed by filtration with a 0.45 μm membrane filter to obtain each water-based ink composition for inkjet recording. Ion exchange water was used as water. In addition, water and ammonia water were added thereto to adjust the pH of the ink composition to 7 to 10 and a total amount of the ink composition to 100 parts. The test using the compound obtained in (2) of Example 1 is Example 7. Similarly the tests using the compounds obtained in Examples 2 to 6 are Examples 8 to 12 respectively.
(§2) Using an inkjet printer (Pixus 860i from Canon Inc.), inkjet recording was conducted on glossy paper having an ink-receiving layer containing a porous white inorganic substance (Professional Photopaper PR-101 from Canon Inc.). In inkjet recording, an image pattern was made so as to obtain gradations of several stages in printing density, and a print was made.
Hue and vividness in a recorded image : recorded paper was measured using a colorimetric system (GRETAG SPM50 from GRETAG Co., Ltd.), values of L*, a* and b* were calculated, and for vividness, C*=((a*)^2+(b*)^2)^1/2 was calculated from color level (a* and b*) where color level a* of each recording paper is similar. And vividness was evaluated on the following 3 levels judging from the measured results and the results are shown jointly in Table 4. • 90≦C* . . . ∘ • 80≦C*<90 . . . Δ

[2] = Ozone gas fastness test of a recorded image; settings: ozone 40 ppm, 60% RH, 24° C., 3 hours, glossy paper
Protocol: A liquid of a composition shown in the following Table 3 is prepared using a compound (Compound No. 1) obtained in (2) of the above Example 1, followed by filtration with a 0.45 μm membrane filter to obtain each water-based ink composition for inkjet recording. Ion exchange water was used as water. In addition, water and ammonia water were added thereto to adjust the pH of the ink composition to 7 to 10 and a total amount of the ink composition to 100 parts. The test using the compound obtained in (2) of Example 1 is Example 7. Similarly the tests using the compounds obtained in Examples 2 to 6 are Examples 8 to 12 respectively. Using an inkjet printer (Pixus 860i from Canon Inc.), inkjet recording was conducted on glossy paper having an ink-receiving layer containing a porous white inorganic substance (Professional Photopaper PR-101 from Canon Inc.). In inkjet recording, an image pattern was made so as to obtain gradations of several stages in printing density, and a print was made. Using an ozone weatherometer (from Suga Testing Machine Co., Ltd.), a piece of testing paper printed on glossy paper from Canon, Inc. was left for 3 hours under conditions of ozone concentration of 40 ppm, humidity of 60% RH and temperature of 24° C., and color difference (ΔE) before and after the test was measured and evaluated on 3 levels. • ΔE≦20 . . . ∘ • 20<ΔE≦40 . . . Δ • 40<ΔE . . . x

[3] = Xenon light fastness test of a recorded image; settings: xenon weatherometer Ci4000, 50 hours, 0.36 W/m^2, 2 mm glass plate and air layer, printed glossy paper and plain paper
Protocol: as §1, §2
Using a xenon weatherometer Ci4000 (from ATLAS Co., Ltd.), pieces of testing paper of printed glossy paper and plain paper from Canon, Inc., on which a glass plate having a thickness of 2 mm and an air layer were set up, were irradiated for 50 hours at illuminance of 0.36 W/m^2, and color difference (ΔE) before and after the test was measured and evaluated on 3 levels. • ΔE≦10 . . . ∘ • 10<ΔE≦20 . . . Δ • 20<ΔE . . . x The results are shown in Table 5. (E) Ozone Gas Fastness Test of a Recorded Image

| Vividness C* [1] | Vividness C* (3-level evaluation) [1] | Brilliance L* [1] | Hue a* [1] | Hue b* [1] | Ozone fastness (color difference ΔE before and after the test, 3 levels) [2] | Light fastness (color difference ΔE before and after the test, 3 levels) [3] | Structure (SMILES) |
| --- | --- | --- | --- | --- | --- | --- | --- |
| 109.7 | ∘ (90≦C*) | 66.8 | 53.7 | 96.1 | ∘ (ΔE≦20) | ∘ (ΔE≦10) | Cc1c(C#N)c(NCCS(=O)(=O)O)nc(NCCS(=O)(=O)O)c1N=Nc1nc2ccccc2s1 [Compound No. 1] |
| 101.9 | ∘ (90≦C*) | 68.3 | 53.5 | 86.8 | ∘ (ΔE≦20) | ∘ (ΔE≦10) | Cc1c(C#N)c(NCCS(=O)(=O)O)nc(NCCS(=O)(=O)O)c1N=Nc1nc2ccc(S(=O)(=O)O)cc2s1 [Compound No. 2] |
|  |  |  |  |  | ∘ (ΔE≦20) | ∘ (ΔE≦10) | Cc1c(C#N)c(NCCS(=O)(=O)O)nc(NCCS(=O)(=O)O)c1N=Nc1nc2ccc(S(C)(=O)=O)cc2s1 [Compound No. 3] |
|  |  |  |  |  | ∘ (ΔE≦20) | ∘ (ΔE≦10) | COc1ccc2nc(N=Nc3c(NCCS(=O)(=O)O)nc(NCCS(=O)(=O)O)c(C#N)c3C)sc2c1 [Compound No. 4] |
|  |  |  |  |  | ∘ (ΔE≦20) | ∘ (ΔE≦10) | Cc1c(C#N)c(NCCS(=O)(=O)O)nc(NCCS(=O)(=O)O)c1N=Nc1nc2ccc(C(=O)O)cc2s1 [Compound No. 5] |
|  |  |  |  |  | ∘ (ΔE≦20) | ∘ (ΔE≦10) | Cc1c(C#N)c(NCCS(=O)(=O)O)nc(NCCS(=O)(=O)O)c1/N=N/c1snc2ccc(S(=O)(=O)O)cc12 [Compound No. 8] |
